Test results as given in patent US10029994B2, “Isoxazole hydroxamic acid compounds as LpxC inhibitors” (priority 2014, dated 2018).
Where two headings read alike, the source gives them in different places.

How the values were obtained:
E. C. ATCC 25922 = assay: MIC, broth microdilution (CLSI); format: cell-based, Escherichia coli; settings: for MIC: Escherichia coli, ATCC25922, 20 h, read-out: E. C. ATCC 25922 MIC
Experimental: (§1) Bacterial isolates were cultivated from −70° C. frozen stocks by two consecutive overnight passages at 35° C. in ambient air on 5% blood agar (Remel, Lenexa, Kans.). Quality control strain, P. aeruginosa ATCC 27853, A. baumannii ATCC19606 and E. coli ATCC 25922 are from the American Type Culture Collection (ATCC; Rockville, Md.) and PAO1 was received from Dr. K. Poole.
(§2) Minimal Inhibitory Concentrations (MICs) were determined by the broth microdilution method in accordance with Clinical and Laboratories Institute (CLSI) guidelines (CLSI M100-S25, Performance Standards for Antimicrobial Susceptibility Testing; Twenty-fifth Informational Supplement). In brief, fresh bacterial overnight cultures were resuspended in sterile saline, adjusted to a 0.5 McFarland turbidity standard and then diluted 2000-fold in cation adjusted Mueller-Hinton Broth II (MHB; Remel BBL) to yield a final inoculum of approximately 5×10^5 colony-forming units (CFU)/mL. Two-fold serial dilutions of compounds were prepared in 100% dimethyl sulfoxide (DMSO) at 100-fold the highest final assay concentration; the resulting dilution series of compounds were diluted 1:10 with sterile water. Ten μl of the drug dilution series in 10% DMSO was transferred to microtiter wells and 90 μl of bacterial suspension was inoculated into the wells. For testing the ability of compounds to potentiate the activity of known antibiotics, the assay was modified as follows; known antibiotics were added to the bacterial inoculum at 1.1-fold the final assay concentration indicated in Table A. All inoculated microdilution trays were incubated in ambient air at 35° C. for 20 hours. Following incubation, assay plates were read in a microtiter plate reader at 600 nm and visually inspected to confirm the MIC endpoint well with the OD value. The lowest concentration of the compound that prevented visible growth was recorded as the MIC. Performance of the assay was monitored by testing ciprofloxacin against the laboratory quality control strain in accordance with guidelines of the CLSI.

A. B. ATCC 19606 [1] = assay: MIC in the presence of sub-inhibitory rifampicin (potentiation/synergy); format: cell-based, Acinetobacter baumannii; settings: +2 μg/ml rifampicin (RIF); broth microdilution, 35° C., 20 hours
Experimental: as §1, §2

A. B. ATCC 19606 [2] = assay: MIC, broth microdilution (CLSI); format: cell-based, Acinetobacter baumannii; settings: for MIC: Acinetobacter baumannii, read-out: A. B. ATCC 19606 MIC
Experimental: as §1, §2

E. C. ATCC 29522 = assay: MIC in the presence of sub-inhibitory rifampicin (potentiation/synergy); format: cell-based, Escherichia coli; settings: +2 μg/ml rifampicin (RIF); broth microdilution, 35° C., 20 hours
Experimental: as §1, §2

P. A. PAO1 NB52019 = assay: MIC, broth microdilution (CLSI); format: cell-based, Pseudomonas aeruginosa; settings: for MIC: Pseudomonas aeruginosa, read-out: P. A. PAO1 NB52019 MIC
Experimental: as §1, §2

P. aeruginosa LpxC = molecular target: T1, P. aeruginosa LpxC (Pseudomonas aeruginosa, UniProt P47205); assay: P. aeruginosa LpxC Inhibition Assay (LC-MS/MS); format: biochemical; settings: 1 nM P. aeruginosa LpxC, 30 min pre-incubation, 2 μM UDP-3-O-(R-3-hydroxydecanoyl)-GlcNAc, pH 7.5
T1 construct: made in house
T1 sequence (P47205 1-303): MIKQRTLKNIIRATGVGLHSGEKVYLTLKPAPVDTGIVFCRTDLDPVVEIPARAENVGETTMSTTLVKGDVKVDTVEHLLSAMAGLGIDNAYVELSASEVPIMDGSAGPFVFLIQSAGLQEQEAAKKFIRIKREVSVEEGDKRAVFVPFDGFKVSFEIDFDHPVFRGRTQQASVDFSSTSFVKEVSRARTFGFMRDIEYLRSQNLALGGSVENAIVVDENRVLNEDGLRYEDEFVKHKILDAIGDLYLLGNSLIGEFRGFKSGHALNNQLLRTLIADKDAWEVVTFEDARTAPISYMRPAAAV
Description: P. aeruginosa LpxC Inhibition Assay
The P. aeruginosa LpxC protein is produced according to the general method of Hyland et al (Journal of Bacteriology 1997 179, 2029-2037: Cloning, expression and purification of UDP-3-O-acyl-GlcNAc deacetylase from Pseudomonas aeruginosa: a metalloamidase of the lipid A biosynthesis pathway). The LC-MS/MS method for quantitation of LpxC product was developed using an Agilent 1200 Capillary HPLC system coupled to an Applied Biosystems MDS Sciex 4000QTRAP mass spectrometer. Both instruments are controlled using the Applied Biosystems MDS Sciex Analyst software. LpxC reaction product (UDP-3-O—(R-3-hydroxyacyl)-glucosamine) was produced by hydrolysis of LpxC substrate catalyzed by P.a. LpxC and purified using reversed phase chromatography on a Phenomenex Luna C18(2) 4.6×50 mm column. An LpxC product calibration curve was generated to evaluate the sensitivity and dynamic range of the LC-MS/MS method. Briefly, compounds are pre-incubated with 1 nM P. aeruginosa LpxC for 30 min. at room temperature. Reactions are initiated by the addition of 2 μM UDP-3-O—(R-3-hydroxydecanoyl)-GlcNAc. Reactions are conducted in a 384-well plate with a total volume of 50 μL in each well containing 50 mM Sodium phosphate pH 7.5, 0.005% Trition X-100 for 20 min at room temperature. After quenching with 1.8% HOAc (5 μL of a 20% HOAc added to each well), reaction mixtures are analyzed using the LC-MS/MS method and peak areas are transformed into product concentration using a LpxC product calibration curve. Total activity (0% inhibition control) is obtained from reactions with no inhibitors and 100% inhibition control is the background using quenched samples before reaction starts. For IC50 determinations, peak areas are converted to percent inhibition in Microsoft Excel. Percent inhibition values are plotted vs. log compound concentration using XLfit. Data is fit to the four-parameter logistic equation using the non-linear regression algorithm in XLfit to return the IC50 and hill slope values.

[3] = broth microdilution, 35° C., 20 hours
[4] = ATCC19606, broth microdilution, 35° C., 20 hours
[5] = PAO1, broth microdilution, 35° C., 20 hours

| SMILES | MIC (E. C. ATCC 25922; [3]) [µg/mL] | A. B. ATCC 19606 (+2 μg/ml RIF) MIC (A. B. ATCC 19606 [1]) [µg/mL] | MIC (A. B. ATCC 19606 [2]; [4]) [µg/mL] | E. C. ATCC 29522 (+2 μg/ml RIF) MIC (E. C. ATCC 29522) [µg/mL] | MIC (P. A. PAO1 NB52019; [5]) [µg/mL] | E. C. ATCC 25922 MIC (E. C. ATCC 25922; [3]) [µg/mL] | A. B. ATCC 19606 MIC (A. B. ATCC 19606 [2]; [3]) [µg/mL] | P. A. PAO1 NB52019 MIC (P. A. PAO1 NB52019; [3]) [µg/mL] | IC50 (P. aeruginosa LpxC) [nM] | MIC (E. C. ATCC 25922) [µg/mL] | MIC (A. B. ATCC 19606 [2]; ATCC19606, 20 h) [µg/mL] | MIC (P. A. PAO1 NB52019; PAO1, 20 h) [µg/mL] |
| --- | --- | --- | --- | --- | --- | --- | --- | --- | --- | --- | --- | --- |
| COCC1CC(C#Cc2cc(CC[C@](C)(C(=O)NO)S(C)(=O)=O)no2)C1 (single isomer, unassigned) [Compound 1.15a] | 8 | 0.25 | > 64 | 0.25 | 2 |  |  |  |  |  |  |  |
| COCC1CC(C#Cc2cc(CC[C@](C)(C(=O)NO)S(C)(=O)=O)no2)C1 (single isomer, unassigned) [Compound 1.15b] |  | 0.5 |  | 0.25 |  | 4 | >64 | 2 |  |  |  |  |
| C[C@@](CCc1cc(C#CC2CC2)on1)(C(=O)NO)S(C)(=O)=O [Compound 1.1, (R)-4-(5-(cyclopropylethynyl)isoxazol-3-yl)-N-hydroxy-2-methyl-2-(methylsulfonyl)butanamide] | 2 | 0.125 | > 64 | ≤0.06 | 0.25 |  |  |  | 3 |  |  |  |
| C[C@@](CCc1cc(C#CC2CCC2)on1)(C(=O)NO)S(C)(=O)=O [Compound 1.2, (R)-4-(5-(cyclobutylethynyl)isoxazol-3-yl)-N-hydroxy-2-methyl-2-(methylsulfonyl)butanamide] | 2 | ≤0.06 | > 64 | ≤0.06 | 0.125 |  |  |  | < 1 |  |  |  |
| CC(C)(C)C#Cc1cc(CC[C@](C)(C(=O)NO)S(C)(=O)=O)no1 [Compound 1.3, (R)-4-(5-(3,3-dimethylbut-1-yn-1-yl)isoxazol-3-yl)-N-hydroxy-2-methyl-2-(methylsulfonyl)butanamide] | 8 | 0.25 | > 64 | 2 | 0.25 |  |  |  | < 1 |  |  |  |
| CC#Cc1cc(CC[C@](C)(C(=O)NO)S(C)(=O)=O)no1 [Compound 1.4, (R)—N-hydroxy-2-methyl-2-(methylsulfonyl)-4-(5-(prop-1-yn-1-yl)isoxazol-3-yl)butanamide] | 4 | 2 | > 64 | ≤0.06 | 0.25 |  |  |  | 2 |  |  |  |
| CCC#Cc1cc(CC[C@](C)(C(=O)NO)S(C)(=O)=O)no1 [Compound 1.5, (R)-4-(5-(but-1-yn-1-yl)isoxazol-3-yl)-N-hydroxy-2-methyl-2-(methylsulfonyl)butanamide] | 4 | ≤0.06 | > 64 | ≤0.06 | 0.25 |  |  |  | 1 |  |  |  |
| CC(C)C#Cc1cc(CC[C@](C)(C(=O)NO)S(C)(=O)=O)no1 [Compound 1.6, (R)—N-hydroxy-2-methyl-4-(5-(3-methylbut-1-yn-1-yl)isoxazol-3-yl)-2-(methylsulfonyl)butanamide] | 4 | 0.125 | > 64 | 0.125 | 0.5 |  |  |  | < 1 |  |  |  |
| CCCC#Cc1cc(CC[C@](C)(C(=O)NO)S(C)(=O)=O)no1 [Compound 1.7, (R)—N-hydroxy-2-methyl-2-(methylsulfonyl)-4-(5-(pent-1-yn-1-yl)isoxazol-3-yl)butanamide] | 2 | 0.125 | > 64 | ≤0.06 | 0.25 |  |  |  | < 1 |  |  |  |
| CC1(C#Cc2cc(CC[C@](C)(C(=O)NO)S(C)(=O)=O)no2)CC1 [Compound 1.8, (R)—N-hydroxy-2-methyl-4-(5-((1-methylcyclopropyl)ethynyl)isoxazol-3-yl)-2-(methylsulfonyl)butanamide] | 8 | ≤0.06 | > 64 | 0.25 | 0.25 |  |  |  | < 1 |  |  |  |
| C[C@@](CCc1cc(C#CCCF)on1)(C(=O)NO)S(C)(=O)=O [Compound 1.9] | 32 | 1 | > 64 | 0.125 | 1 |  |  |  | 3 |  |  |  |
| C[C@@](CCc1cc(C#CC2CC(F)C2)on1)(C(=O)NO)S(C)(=O)=O (stereo partly drawn) [Compound 1.13, (R)-4-(5-((3-fluorocyclobutyl)ethynyl)isoxazol-3-yl)-N-hydroxy-2-methyl-2-(methylsulfonyl)butanamide] | 16 | ≤0.06 | > 64 | 0.25 | 0.5 |  |  |  |  |  |  |  |
| C[C@@](CCc1cc(/C=C/C2CC2)on1)(C(=O)NO)S(C)(=O)=O [Compound 4.2, (R,E)-4-(5-(2-cyclopropylvinyl)isoxazol-3-yl)-N-hydroxy-2-methyl-2-(methylsulfonyl)butanamide] | 8 | 0.5 | > 64 | 0.125 | 0.25 |  |  |  |  |  |  |  |
| C/C=C(/C)c1cc(CC[C@](C)(C(=O)NO)S(C)(=O)=O)no1 [Compound 4.3-2, (R,Z)-4-(5-(but-2-en-2-yl)isoxazol-3-yl)-N-hydroxy-2-methyl-2-(methylsulfonyl)butanamide] |  | 8 |  | 0.5 |  |  |  |  |  | 16 | > 64 | 2 |
| C[C@@](CCc1cc(/C(F)=C\C2CC2)on1)(C(=O)NO)S(C)(=O)=O [Compound 4.5-2, (R,E)-4-(5-(2-cyclopropyl-1-fluorovinyl)isoxazol-3-yl)-N-hydroxy-2-methyl-2-(methylsulfonyl)butanamide] | 64 | 16 | > 64 | 2 | 8 |  |  |  |  |  |  |  |
